What was measured:
[1] = test system: male Swiss-albino mice (CD-1 strain), NMDA-induced lethality; experiment: NMDA induced lethality in mice (survival); assay type: in vivo, mouse; settings: for ED50: Mus musculus, 0.5 h, mice pretreated 30 min before NMDA 195 mg/kg i.p., observed 30 min; for percent inhibition of lethality: NMDA 195 mg/kg i.p.
Experimental: (§1) The mice were then observed for 30 minutes, noting the latency of onset of generalized myoclonus (uncontrollable hind leg scratching of limbs and/or torso muscle jerking with loss of righting reflex) and death. From the latter, the ED50 for survival is determined. In this standard experimental test procedure, the specific compounds tested and their activity, which representatively establish the activity for all the compounds herein, is presented in the following Table.
(§2) Where the displacement of CPP binding is expressed as a percentage, it is at the μM concentration given at the concentration in the parenthesis. Similarly, where percent inhibition of lethality at dose in parenthesis.

[2] = molecular target: NMDA receptors; experiment: (3H)CPP binding displacement in rat brain homogenate; settings: for IC50: (3H)CPP 8 nM, rat brain homogenate, 23° C.
Experimental: It was determined that the compounds of this invention are competitive NMDA antagonists by determining their ability to inhibit binding of 3-(2-carboxypiperazinyl-4-yl)propyl-1-phosphonic acid (CPP), a known competitive NMDA antagonist, at NMDA receptors in rat brain homogenate. In a manner similar to the procedure of Murphy et al., J. Pharmacol. Exp. Therap. 240 (3) 778 (1987), rat brain homogenates from which endogenous glutamate had been removed were incubated with (3H)CPP (8 nM), the compound being tested and then buffer each for 15 minutes at 23° C. to obtain a final volume of 2 milliliters. The amount of radio ligand displaced by the test compound is expressed as a percentile of the radio ligand displaced by NMDA. The inhibitory concentration of test compound that will displace 50% of the labeled CPP is determined from dose-responseevaluations.
as §2

[3] = test system: male Swiss-albino mice (CD-1 strain), generalized myoclonus; experiment: NMDA-induced generalized myoclonus in mice; assay type: in vivo; settings: Mus musculus, ip, read-out: ED90 dose for generalized myoclonus
Experimental: as §1

[4] = test system: NMDA-induced convulsions in mice; settings: Lehmann et al. 1987; cited from earlier work
[5] = test system: Parkinsonian-like symptoms induced by MPTP in rats; settings: Turski et al., Nature 1991; cited from earlier work
[6] = test system: ischemic brain damage in gerbils; settings: Boast et al., Brain Research 1988; cited from earlier work
[7] = at dose in parenthesis 5 (in mg/kg)

Structure (SMILES) | ED50 [1] [mg/kg] | IC50 [2] [nM] | other results
Nc1c(NCCn2oc(=O)[nH]c2=O)c(=O)c1=O [Example 2, 2-[2-[(2-Amino-3,4-dioxo-1-cyclobuten-1-yl)amino]ethyl]-1,2,4-oxadiazolidine-3,5-dione] | > 100 | 5200 | 
Nc1c(NCCCCP(=O)(O)O)c(=O)c1=O [4(c), [4-[(2-amino-3,4-dioxo-1-cyclobuten-1-yl)amino]butyl]phosphonic acid] | > 30 |  | displacement of CPP binding ([2]; at 10 μM): 68%
Nc1c(NCP(=O)(O)O)c(=O)c1=O [4(a), [[(2-amino-3,4-dioxo-1-cyclobutenyl)amino]methyl]phosphonic acid] |  | > 10000 | 
O=C(O)CCN1CCCNc2c1c(=O)c2=O [10(a), 3-(8,9-dioxo-2,6-diazabicyclo[5.2.0]non-1(7)-en-2-yl)propanoic acid] | > 20 | 340 | 
Nc1c(NCC(=O)O)c(=O)c1=O [1(b), N-(2-amino-3,4-dioxo-1-cyclobutenyl)glycine] | > 100 |  | 
O=c1c2c(c1=O)N(CCCP(=O)(O)O)CCCN2 [9(b), [3-(8,9-dioxo-2,6-diazabicyclo[5.2.0]non-1(7)-en-2-yl)propyl]phosphonic acid] | > 10 | > 1000 | 
CN[C@H](CC(=O)O)C(=O)O [NMDA, N-methyl-D-aspartic acid] |  |  | ED90 [3]: 195 mg/kg
O=c1c2c(c1=O)N(CCP(=O)(O)O)CCCCN2 [Example 12, [2-(9,10-Dioxo-2,7-diazabicyclo[6.2.0]dec-1(8)-en-2-yl)ethyl]phosphonic acid] |  | 41 | percent inhibition of lethality [1, 7]: 80%
CC1(C)CNc2c(c(=O)c2=O)N(CCP(=O)(O)O)C1 [9(a), [2-(4,4-dimethyl-8,9-dioxo-2,6-diazabicyclo[5.2.0]non-1(7)-en-2-yl)ethyl]phosphonic acid] |  | 280 | percent inhibition of lethality [1, 7]: 50%
O=c1c2c(c1=O)N(C/C=C/P(=O)(O)O)CCCN2 [9(c), [(E)-3-(8,9-dioxo-2,6-diazabicyclo[5.2.0]non-1(7)-en-2-yl)-1-propenyl]phosphonic acid] | > 5 | > 10000 | 
O=C(O)CCNc1c(NCc2ccccc2)c(=O)c1=O [2(b), 3-[[3,4-dioxo-2[(phenylmethyl)amino]-1-cyclobutenyl]amino]propanoic acid] | > 100 | > 100000 | 
CN(CCP(=O)(O)O)c1c(N)c(=O)c1=O [Example 6, [2-[(2-Amino-3,4-dioxo-1-cyclobuten-1-yl)methylamino]ethyl]phosphonic acid] |  | 1000 | percent inhibition of lethality ([1]; at dose in parenthesis 50 (in mg/kg)): 50%
Nc1c(NCCP(=O)(O)O)c(=O)c1=O [Example 4, [2-[(2-Amino-3,4-dioxo-1-cyclobuten-1-yl)amino]ethyl]phosphonic acid] |  | 471 | 
CNc1c(NCCC(=O)O)c(=O)c1=O [2(a), N-[2-(methylamino)-3,4-dioxo-1-cyclobutenyl]beta-alanine] | > 100 | 19600 | 
Nc1c(NC/C=C/CP(=O)(O)O)c(=O)c1=O [Example 5, [(E)-4-[(2-Amino-3,4-dioxo-1-cyclobuten-1-yl)amino]-2-butenyl]phosphonic acid] | > 30 |  | displacement of CPP binding ([2]; at 10 μM): 52%
Nc1c(N(CC(=O)O)Cc2ccccc2)c(=O)c1=O [3(b), N-(2-amino-3,4-dioxo-1-cyclobutenyl)-N-(phenylmethyl)glycine] | > 100 |  | displacement of CPP binding ([2]; at 100 μM): 50%
CCOC(=O)CNc1c(N)c(=O)c1=O [1(a), N-(2-amino-3,4-dioxo-1-cyclobutenyl)glycine ethyl ester] | > 100 | 190000 | 
C=C(C)CN(CC(=O)O)c1c(N)c(=O)c1=O [3(a), N-(2-amino-3,4-dioxo-1-cyclobutenyl)-N-(2-methyl-2-propenyl)glycine] | > 100 | 30000 | 
Nc1c(NCCC(=O)O)c(=O)c1=O [Example 1, N-(2-Amino-3,4-dioxo-1-cyclobuten-1-yl)beta-alanine] | > 100 |  | 
Nc1c(NCCCC(=O)O)c(=O)c1=O [1(c), 4-[(2-amino-3,4-dioxo-1-cyclobutenyl)amino]butanoic acid] | > 100 | 10200 | 
O=c1c2c(c1=O)N(CCP(=O)(O)O)CCN2 [Example 7, [2-(7,8-Dioxo-2,5-diazabicyclo[4.2.0]oct-1(6)-en-2-yl)ethyl]phosphonic acid] | 6.2 | 92 | 
O=C(O)CN1CCCNc2c1c(=O)c2=O [Example 10, 8,9-Dioxo-2,6-diazabicyclo[5.2.0]non-1(7)-ene-2-acetic acid] | > 20 | 550 | 
O=c1c2c(c1=O)N(CCP(=O)(O)O)CCCN2 [Example 8, [2-(8,9-Dioxo-2,6-diazabicyclo[5.2.0]non-1(7)-en-2-yl)ethyl]phosphonic acid] | 2.1 | 30 | 
C=CCN(CC(=O)O)c1c(N)c(=O)c1=O [Example 3, N-(2-Amino-3,4-dioxo-1-cyclobuten-1-yl)-N-(2-propenyl)glycine] | > 100 | 10500 | 
O=c1c2c(c1=O)N(Cc1nnn[nH]1)CCCN2 [Example 11, 2-[(1H-Tetrazol-5-yl)methyl]-2,6-diazabicyclo[5.2.0]non-1(7)-ene-8,9-dione] | > 10 | 38 | 
O=C(O)C1CN(CCCP(=O)(O)O)CCN1 (stereo not shown) [CPP, 4-(3-phosphonopropyl)-2-piperazinecarboxylic acid] |  |  | prevention of NMDA-induced convulsions [4]: NMDA-induced convulsions have been prevented by CPP in mice; prevention of Parkinsonian-like symptoms induced by MPTP [5]: shown to prevent the Parkinsonian-like symptoms induced by MPTP; prevention of ischemic brain damage [6]: shown to prevent ischemic brain damage in gerbils
O=c1c2c(c1=O)N(CCc1nnn[nH]1)CCCN2 [11(a), 2-[2-(1H-tetrazol-5-yl)ethyl]-2,6-diazabicyclo[5.2.0]non-1(7)-ene-8,9-dione] | > 5 |  | displacement of CPP binding ([2]; at 10 μM): 40%
Nc1c(NCCCP(=O)(O)O)c(=O)c1=O [4(b), [3-[(2-amino-3,4-dioxo-1-cyclobuten-1-yl)amino]propyl]phosphonic acid] | > 100 | 2590 | 
CN(CP(=O)(O)O)c1c(N)c(=O)c1=O [6(a), [[(2-amino-3,4-dioxo-1-cyclobuten-1-yl)methylamino]methyl]phosphonic acid] |  | > 10000 | 
O=c1c2c(c1=O)N(CCP(=O)(O)O)CC(O)CN2 (stereo not shown) [Example 9, [2-(4-hydroxy-8,9-dioxo-2,6-diazabicyclo[5.2.0]non-1(7)-en-2-yl)ethyl]phosphonic acid] | 1.8 | 19 | 

Source: patent US5240946A, “((2-(amino-3,4-dioxo-1-cyclobuten-1-yl)amino)alkyl)-acid derivatives” (American Home Products Corporation, priority 1992, dated 1993)
